Measured values published in patent US9783527B2, “Indazole ureas and method of use” (AbbVie Inc., priority 2014, dated 2017).

How the values were obtained:
[1] = target: human Nav1.7 (Homo sapiens (Human), UniProt Q15858); assay: FRET-based membrane potential assay, recombinant human sodium channel Nav1.7; assay type: cell-based; conditions: HEK293 cells stably expressing recombinant human Nav1.7; depolarization with veratridine (EC80) + scorpion venom
Procedure, shortened: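 IC50 derived by four-parameter Hill fit of percent inhibition of depolarization, measured as peak F440-480/F565-625 ratio over baseline. Stable human Nav1.7 HEK293 cells, dye-loaded with CC2-DMPE and DiSBAC2(3)/VABSC-1 at room temperature, received compound 3 min ahead of veratridine (EC80) plus scorpion venom.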

[2] = target: human Nav1.8 (Homo sapiens (Human), UniProt Q9Y5Y9); assay: FRET-based membrane potential assay, recombinant human sodium channel Nav1.8; assay type: cell-based; conditions: HEK293 cells stably expressing recombinant human Nav1.8; depolarization with veratridine (EC80) + scorpion venom
Method: FRET-Based Membrane Potential Assays.
Recombinant, Human Sodium Channel, Nav1.8.
Two days prior to the experiment, frozen HEK293 cells stably expressing recombinant human Nav1.8 (Essen, Ann Arbor, Mich.) were quickly thawed and plated at 22,500 cells/well in growth medium [MEM (Invitrogen #11095) with 10% FBS (Invitrogen #10082), 1 mM sodium pyruvate (Invitrogen, #C11360), 10 units/mL penicillin/10 U/mL streptomycin/29.2 μg/mL glutamine ((PSG 1%, Invitrogen #10378), 400 μg/mL zeocin (Invitrogen #R250) in black-walled, clear-bottom 384-well poly-D-lysine-coated assay plates (Greiner Bio-One, Frickenhausen, Germany) and incubated in a humidified 5% CO2 incubator at 37° C. On the day of the assay, medium was removed by aspiration, and cells were washed with assay buffer [HBSS (Invitrogen, Carlsbad, Calif.) containing 20 mM HEPES (Invitrogen, Carlsbad, Calif.)]. After washing, 30 μL assay buffer containing the fluorescent voltage-sensor probe CC2-DMPE (Invitrogen, Carlsbad, Calif.) at 20 μM and 0.01% pluronic F-127 (Invitrogen, Carlsbad, Calif.) was added to the cells. Cells were incubated for 40 minutes at room temperature in the dark. Following the incubation, the cells were washed and 30 μL assay buffer containing 2.5 μM DiSBAC2(3) substrate (Invitrogen, Carlsbad, Calif.) and 0.5 mM VABSC-1 (Invitrogen, Carlsbad, Calif.) was added to the cells. The cells were incubated for 60 minutes at room temperature in the dark. Fluorescence readings were made using a FLIPR®^TETRA (Molecular Devices, Sunnyvale Calif.) equipped with voltage-sensor probe optics. The depolarizing agent, veratridine (Sigma-Aldrich, St. Louis, Mo.), was made up at 3× concentrations in assay buffer containing 1 mg/mL scorpion venom (SVqq, from Leiurus quinquestriatus; Sigma-Aldrich, St. Louis, Mo.). The assay agonist/opener concentration was determined each day using a 6-point veratridine concentration curve in duplicate, tested with three concentrations of tetracaine (0.1, 0.06, 0.01 μM all in 0.03% dimethyl sulfoxide) and 0.03% dimethyl sulfoxide control in assay buffer. […] Test compounds in the daughter plate were diluted to (˜3×) solutions in assay buffer immediately before assaying. Using the FLIPR®^TETRA, 20 μL of the (3×) compound solutions were first added to the cells, then 20 μL of depolarizing solution (3×EC80 veratridine+SVqq) were added 3 minutes later to activate the channel. Changes in fluorescence were measured at wavelengths of 440-480 nm and 565-625 nm over the course of the experimental run. Membrane depolarization was expressed as a ratio of the maximum F440-480 nm/F565-625 nm reading above average baseline F440-480 nm/F565-625 nm reading. IC50 values were calculated from curve fits of the ratio data using a four-parameter logistic Hill equation (Accelrys Assay Explorer 3.3 Client, Accelrys, San Diego, Calif.) with percent inhibition plotted against compound concentration.

Sequence of human Nav1.8 (Q9Y5Y9 whole entry): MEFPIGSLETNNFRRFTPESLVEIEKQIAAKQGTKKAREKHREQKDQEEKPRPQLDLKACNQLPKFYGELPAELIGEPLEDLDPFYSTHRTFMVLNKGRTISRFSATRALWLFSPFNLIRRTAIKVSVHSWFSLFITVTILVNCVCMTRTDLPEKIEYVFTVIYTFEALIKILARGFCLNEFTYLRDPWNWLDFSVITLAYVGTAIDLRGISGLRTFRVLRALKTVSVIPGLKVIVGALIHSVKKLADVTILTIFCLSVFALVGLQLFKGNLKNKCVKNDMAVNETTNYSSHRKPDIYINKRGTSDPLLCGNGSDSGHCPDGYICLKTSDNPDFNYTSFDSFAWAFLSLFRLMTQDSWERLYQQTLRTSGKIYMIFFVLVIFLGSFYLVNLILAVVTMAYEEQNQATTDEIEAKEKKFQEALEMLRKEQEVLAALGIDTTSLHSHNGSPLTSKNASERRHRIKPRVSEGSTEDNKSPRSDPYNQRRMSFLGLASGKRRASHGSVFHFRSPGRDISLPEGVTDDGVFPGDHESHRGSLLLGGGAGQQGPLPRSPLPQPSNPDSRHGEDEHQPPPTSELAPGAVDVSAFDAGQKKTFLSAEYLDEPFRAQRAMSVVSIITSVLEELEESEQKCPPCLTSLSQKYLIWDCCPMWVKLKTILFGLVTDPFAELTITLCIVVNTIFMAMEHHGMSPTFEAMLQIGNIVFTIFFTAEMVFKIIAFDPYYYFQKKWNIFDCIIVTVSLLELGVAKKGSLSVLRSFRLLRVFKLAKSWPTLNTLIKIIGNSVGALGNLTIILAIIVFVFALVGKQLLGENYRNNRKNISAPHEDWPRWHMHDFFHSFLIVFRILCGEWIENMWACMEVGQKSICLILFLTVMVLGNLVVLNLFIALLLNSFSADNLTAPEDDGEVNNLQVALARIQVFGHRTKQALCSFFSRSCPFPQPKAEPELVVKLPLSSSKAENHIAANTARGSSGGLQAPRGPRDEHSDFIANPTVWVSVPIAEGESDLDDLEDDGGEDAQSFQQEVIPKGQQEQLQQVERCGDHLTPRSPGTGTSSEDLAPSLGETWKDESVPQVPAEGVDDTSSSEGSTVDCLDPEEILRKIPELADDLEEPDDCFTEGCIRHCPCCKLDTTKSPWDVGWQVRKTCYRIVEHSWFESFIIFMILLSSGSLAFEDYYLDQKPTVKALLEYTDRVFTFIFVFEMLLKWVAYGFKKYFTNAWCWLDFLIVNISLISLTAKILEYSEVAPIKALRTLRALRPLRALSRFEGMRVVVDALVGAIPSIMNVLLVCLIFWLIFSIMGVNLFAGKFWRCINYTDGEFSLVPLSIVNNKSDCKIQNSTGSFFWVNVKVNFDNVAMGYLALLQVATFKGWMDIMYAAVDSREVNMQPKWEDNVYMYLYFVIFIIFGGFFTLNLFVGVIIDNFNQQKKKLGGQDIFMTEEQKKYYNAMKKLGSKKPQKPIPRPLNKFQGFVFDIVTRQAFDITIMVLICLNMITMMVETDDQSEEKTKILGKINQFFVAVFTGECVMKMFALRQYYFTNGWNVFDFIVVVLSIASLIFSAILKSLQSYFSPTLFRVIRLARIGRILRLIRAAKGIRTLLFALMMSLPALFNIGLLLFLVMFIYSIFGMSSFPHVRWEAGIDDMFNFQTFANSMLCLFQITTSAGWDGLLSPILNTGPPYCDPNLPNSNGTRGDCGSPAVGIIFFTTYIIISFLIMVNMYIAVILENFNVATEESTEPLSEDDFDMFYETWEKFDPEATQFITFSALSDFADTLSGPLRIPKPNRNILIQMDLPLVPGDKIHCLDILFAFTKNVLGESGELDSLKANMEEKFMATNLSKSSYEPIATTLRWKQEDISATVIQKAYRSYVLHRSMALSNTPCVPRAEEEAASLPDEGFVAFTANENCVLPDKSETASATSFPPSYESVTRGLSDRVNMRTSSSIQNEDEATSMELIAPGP
Sequence of human Nav1.7 (Q15858 whole entry): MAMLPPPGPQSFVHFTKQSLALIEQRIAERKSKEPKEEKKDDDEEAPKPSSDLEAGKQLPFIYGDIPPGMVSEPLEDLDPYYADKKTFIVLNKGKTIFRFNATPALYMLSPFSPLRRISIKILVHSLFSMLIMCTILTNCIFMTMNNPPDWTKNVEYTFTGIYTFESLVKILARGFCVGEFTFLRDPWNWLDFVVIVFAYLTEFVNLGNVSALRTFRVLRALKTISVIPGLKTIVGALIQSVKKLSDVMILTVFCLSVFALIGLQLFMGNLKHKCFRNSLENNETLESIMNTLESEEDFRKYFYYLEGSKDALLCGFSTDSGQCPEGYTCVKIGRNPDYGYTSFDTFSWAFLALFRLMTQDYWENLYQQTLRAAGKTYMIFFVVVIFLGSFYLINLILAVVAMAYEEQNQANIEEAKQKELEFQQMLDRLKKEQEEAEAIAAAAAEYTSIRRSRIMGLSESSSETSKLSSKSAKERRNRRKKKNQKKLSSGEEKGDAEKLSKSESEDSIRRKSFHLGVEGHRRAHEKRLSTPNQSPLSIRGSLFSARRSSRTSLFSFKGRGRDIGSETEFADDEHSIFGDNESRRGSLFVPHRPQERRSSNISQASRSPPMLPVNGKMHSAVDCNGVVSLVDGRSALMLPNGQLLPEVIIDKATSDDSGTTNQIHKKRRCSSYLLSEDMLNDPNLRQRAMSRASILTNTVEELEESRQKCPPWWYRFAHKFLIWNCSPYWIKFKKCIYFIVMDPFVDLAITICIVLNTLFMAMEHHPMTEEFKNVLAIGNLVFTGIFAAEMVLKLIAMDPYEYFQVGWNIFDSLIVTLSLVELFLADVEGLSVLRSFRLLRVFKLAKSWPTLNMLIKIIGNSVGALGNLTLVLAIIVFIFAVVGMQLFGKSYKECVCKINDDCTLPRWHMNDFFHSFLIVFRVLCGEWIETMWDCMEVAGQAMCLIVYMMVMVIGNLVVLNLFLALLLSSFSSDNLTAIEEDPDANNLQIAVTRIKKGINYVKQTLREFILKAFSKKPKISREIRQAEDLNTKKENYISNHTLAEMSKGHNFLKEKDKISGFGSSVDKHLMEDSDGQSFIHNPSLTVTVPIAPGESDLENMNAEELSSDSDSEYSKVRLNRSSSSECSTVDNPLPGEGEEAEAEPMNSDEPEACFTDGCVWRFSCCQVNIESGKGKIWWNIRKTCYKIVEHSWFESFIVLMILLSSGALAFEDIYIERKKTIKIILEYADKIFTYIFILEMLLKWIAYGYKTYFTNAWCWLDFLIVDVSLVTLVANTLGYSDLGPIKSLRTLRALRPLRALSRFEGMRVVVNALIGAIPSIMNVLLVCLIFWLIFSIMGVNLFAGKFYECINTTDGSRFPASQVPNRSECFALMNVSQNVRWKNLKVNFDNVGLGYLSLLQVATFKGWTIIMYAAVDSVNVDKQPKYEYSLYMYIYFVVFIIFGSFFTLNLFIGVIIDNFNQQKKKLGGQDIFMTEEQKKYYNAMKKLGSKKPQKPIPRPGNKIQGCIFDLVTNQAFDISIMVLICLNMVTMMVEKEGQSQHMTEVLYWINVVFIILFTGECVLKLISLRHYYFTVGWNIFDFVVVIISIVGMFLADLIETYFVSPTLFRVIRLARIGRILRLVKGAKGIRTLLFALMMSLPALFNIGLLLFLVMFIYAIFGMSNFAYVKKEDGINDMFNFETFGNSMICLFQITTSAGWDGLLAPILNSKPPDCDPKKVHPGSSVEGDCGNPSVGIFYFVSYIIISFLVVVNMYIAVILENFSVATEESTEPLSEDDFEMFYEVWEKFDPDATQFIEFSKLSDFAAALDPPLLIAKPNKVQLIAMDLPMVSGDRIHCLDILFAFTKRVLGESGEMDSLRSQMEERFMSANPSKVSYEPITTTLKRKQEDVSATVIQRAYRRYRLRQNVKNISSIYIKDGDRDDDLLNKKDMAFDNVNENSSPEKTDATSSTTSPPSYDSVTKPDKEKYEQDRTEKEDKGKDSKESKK

SMILES | IC50 [1] | IC50 [2]
O=C1N(c2cccc3c2cnn3-c2ccccc2F)CCN1C1CN(S(=O)(=O)CC2CC2(Cl)Cl)C1 (centres unmarked) [Example 282, 1-(1-{[(2,2-dichlorocyclopropyl)methyl]sulfonyl}azetidin-3-yl)-3-[1-(2-fluorophenyl)-1H-indazol-4-yl]imidazolidin-2-one] | 2490 nM | 1410 nM
O=C1N(c2cccc3c2cnn3-c2ccccc2F)CCN1C1CN(S(=O)(=O)CC2CC2)C1 [Example 283, 1-{1-[(cyclopropylmethyl)sulfonyl]azetidin-3-yl}-3-[1-(2-fluorophenyl)-1H-indazol-4-yl]imidazolidin-2-one] | 2550 nM | 2210 nM
O=C1N(c2cccc3c2cnn3-c2ccccc2F)CCN1C1CN(S(=O)(=O)CC(F)(F)F)C1 [Example 284, 1-[1-(2-fluorophenyl)-1H-indazol-4-yl]-3-{1-[(2,2,2-trifluoroethyl)sulfonyl]azetidin-3-yl}imidazolidin-2-one] | 2430 nM | 1190 nM
CC(C)CS(=O)(=O)N1CC(N2CCN(c3cccc4c3cnn4-c3ccccc3F)C2=O)C1 [Example 285, 1-[1-(2-fluorophenyl)-1H-indazol-4-yl]-3-[1-(isobutylsulfonyl)azetidin-3-yl]imidazolidin-2-one] | 2520 nM | 1470 nM
CC(C)(C)OC(=O)CN1CCN(c2cccc3c2cnn3-c2ccccc2F)C1=O [Example 286, tert-butyl {3-[1-(2-fluorophenyl)-1H-indazol-4-yl]-2-oxoimidazolidin-1-yl}acetate] | 3170 nM | 3000 nM
CC(C)(C)OC(=O)CCN1CCN(c2cccc3c2cnn3-c2ccccc2F)C1=O [Example 289, tert-butyl 3-{3-[1-(2-fluorophenyl)-1H-indazol-4-yl]-2-oxoimidazolidin-1-yl}propanoate] | 2710 nM | 2050 nM
O=C(CN1CCN(c2cccc3c2cnn3-c2ccccc2F)C1=O)N1CCC[C@H](O)C1 [Example 290, 1-[1-(2-fluorophenyl)-1H-indazol-4-yl]-3-{2-[(3S)-3-hydroxypiperidin-1-yl]-2-oxoethyl}imidazolidin-2-one] | 4150 nM | 13500 nM
O=C(CN1CCN(c2cccc3c2cnn3-c2ccccc2F)C1=O)N1CC(O)C1 [Example 291, 1-[1-(2-fluorophenyl)-1H-indazol-4-yl]-3-[2-(3-hydroxyazetidin-1-yl)-2-oxoethyl]imidazolidin-2-one] | 5900 nM | 13100 nM
O=C(CCN1CCN(c2cccc3c2cnn3-c2ccccc2F)C1=O)N1CC[C@H](F)C1 [Example 292, 1-[1-(2-fluorophenyl)-1H-indazol-4-yl]-3-{3-[(3S)-3-fluoropyrrolidin-1-yl]-3-oxopropyl}imidazolidin-2-one] | 2960 nM | 4440 nM
O=C(CN1CCN(c2cccc3c2cnn3-c2ccccc2F)C1=O)N1CCOCC1 [Example 293, 1-[1-(2-fluorophenyl)-1H-indazol-4-yl]-3-[2-(morpholin-4-yl)-2-oxoethyl]imidazolidin-2-one] | 3670 nM | 17600 nM
O=C(CN1CCN(c2cccc3c2cnn3C2CCCCC2)C1=O)N1CC[C@H](F)C1 [Example 294, 1-(1-cyclohexyl-1H-indazol-4-yl)-3-{2-[(3S)-3-fluoropyrrolidin-1-yl]-2-oxoethyl}imidazolidin-2-one] | 7170 nM | 18300 nM
O=C(CN1CCN(c2cccc3c2cnn3-c2ccccc2F)C1=O)N1CCCCC1 [Example 295, 1-[1-(2-fluorophenyl)-1H-indazol-4-yl]-3-[2-oxo-2-(piperidin-1-yl)ethyl]imidazolidin-2-one] | 2510 nM | 1790 nM
O=C(CN1CCN(c2cccc3c2cnn3-c2ccccc2F)C1=O)N1CCCC(F)(F)C1 [Example 296, 1-[2-(3,3-difluoropiperidin-1-yl)-2-oxoethyl]-3-[1-(2-fluorophenyl)-1H-indazol-4-yl]imidazolidin-2-one] | 3180 nM | 1310 nM
O=C(CN1CCN(c2cccc3c2cnn3-c2ccccc2F)C1=O)N1CCC(F)(F)CC1 [Example 297, 1-[2-(4,4-difluoropiperidin-1-yl)-2-oxoethyl]-3-[1-(2-fluorophenyl)-1H-indazol-4-yl]imidazolidin-2-one] | 3020 nM | 881 nM
O=C(CN1CCN(c2cccc3c2cnn3-c2ccccc2F)C1=O)N1CC(F)C1 [Example 298, 1-[2-(3-fluoroazetidin-1-yl)-2-oxoethyl]-3-[1-(2-fluorophenyl)-1H-indazol-4-yl]imidazolidin-2-one] | 3370 nM | 1520 nM
O=C(CN1CCN(c2cccc3c2cnn3-c2ccccc2F)C1=O)N1CCC(C(F)(F)F)CC1 [Example 299, 1-[1-(2-fluorophenyl)-1H-indazol-4-yl]-3-{2-oxo-2-[4-(trifluoromethyl)piperidin-1-yl]ethyl}imidazolidin-2-one] | 950 nM | 398 nM
O=C(CN1CCN(c2cccc3c2cnn3-c2ccccc2F)C1=O)N1CCCC(C(F)(F)F)C1 (centres unmarked) [Example 300, 1-[1-(2-fluorophenyl)-1H-indazol-4-yl]-3-{2-oxo-2-[3-(trifluoromethyl)piperidin-1-yl]ethyl}imidazolidin-2-one] | 3110 nM | 1060 nM
O=C(CN1CCN(c2cccc3c2cnn3-c2ccccc2F)C1=O)N1C[C@H]2CC[C@@H](C1)O2 [Example 301, 1-[1-(2-fluorophenyl)-1H-indazol-4-yl]-3-{2-[(1R,5S)-8-oxa-3-azabicyclo[3.2.1]oct-3-yl]-2-oxoethyl}imidazolidin-2-one] | 3160 nM | 1560 nM
O=C1CCN(C(=O)CN2CCN(c3cccc4c3cnn4-c3ccccc3F)C2=O)C1 [Example 302, 1-[1-(2-fluorophenyl)-1H-indazol-4-yl]-3-[2-oxo-2-(3-oxopyrrolidin-1-yl)ethyl]imidazolidin-2-one] | 20000 nM | 7180 nM
O=C(CN1CCN(c2cccc3c2cnn3-c2ccccc2F)C1=O)N1CCCCCC1 [Example 303, 1-[2-(azepan-1-yl)-2-oxoethyl]-3-[1-(2-fluorophenyl)-1H-indazol-4-yl]imidazolidin-2-one] | 2460 nM | 930 nM
O=C(CN1CCN(c2cccc3c2cnn3-c2ccccc2F)C1=O)NCC(F)(F)F [Example 304, 2-{3-[1-(2-fluorophenyl)-1H-indazol-4-yl]-2-oxoimidazolidin-1-yl}-N-(2,2,2-trifluoroethyl)acetamide] | 4790 nM | 1410 nM
CC(C)(C)CCn1ncc2c(N3CCN(CC(=O)N4CCCC4)C3=O)cccc21 [Example 305, 1-[1-(3,3-dimethylbutyl)-1H-indazol-4-yl]-3-[2-oxo-2-(pyrrolidin-1-yl)ethyl]imidazolidin-2-one] | 3670 nM | 3330 nM
CC(C)(C)n1ncc2c(N3CCN(CC(=O)N4CC[C@H](F)C4)C3=O)cccc21 [Example 306, 1-(1-tert-butyl-1H-indazol-4-yl)-3-{2-[(3S)-3-fluoropyrrolidin-1-yl]-2-oxoethyl}imidazolidin-2-one] | 20000 nM | 20000 nM
O=C(CN1CCN(c2cccc3c2cnn3-c2ccccc2F)C1=O)N1CC[C@H](C(F)(F)F)C1 [Example 308, 1-[1-(2-fluorophenyl)-1H-indazol-4-yl]-3-{2-oxo-2-[(3S)-3-(trifluoromethyl)pyrrolidin-1-yl]ethyl}imidazolidin-2-one] | 1020 nM | 345 nM
CC1(F)CN(C(=O)CN2CCN(c3cccc4c3cnn4-c3ccccc3F)C2=O)C1 [Example 309, 1-[2-(3-fluoro-3-methylazetidin-1-yl)-2-oxoethyl]-3-[1-(2-fluorophenyl)-1H-indazol-4-yl]imidazolidin-2-one] | 695 nM | 725 nM
